{"source": "patent US12161115B2", "about": "“Herbicidal compounds” (SYNGENTA CROP PROTECTION AG, priority 2019, dated 2024)", "assay_type_in_all_cases": "in vivo", "key": {"[1]": {"test_system": "Echinochloa crus-galli (ECHCG)", "test": "Post-emergence herbicidal glasshouse test", "settings": "250 g/Ha, evaluated after 13 days", "description": "(§1) Seeds of a variety of test species are sown in standard soil in pots (Lolium perenne (LOLPE), Setaria faberi (SETFA), Alopecurus myosuroides (ALOMY), Echinochloa crus-galli (ECHCG), Avena fatua (AVEFA)). After cultivation for one day (pre-emergence) or after 8 days cultivation (post-emergence) under controlled conditions in a glasshouse (at 24/16° C., day/night; 14 hours light; 65% humidity), the plants are sprayed with an aqueous spray solution derived from the formulation of the technical active ingredient in acetone/water (50:50) solution containing 0.5% Tween 20 (polyoxyethelyene sorbitan monolaurate, CAS RN 9005-64-5). Compounds are applied at 250 g/h. The test plants are then grown in a glasshouse under controlled conditions in a glasshouse (at 24/16° C., day/night; 14 hours light; 65% humidity) and watered twice daily. After 13 days for pre and post-emergence, the test is evaluated for the percentage damage caused to the plant. The biological activities are shown in the following table on a five point scale (5=80-100%; 4=60-79%; 3=40-59%; 2=20-39%; 1=0-19%). NT=not tested."}, "Setaria faberi (SETFA) [2]": {"test_system": "Setaria faberi (SETFA)", "test": "Post-emergence herbicidal glasshouse test", "settings": "250 g/Ha, evaluated after 13 days", "description": "as §1"}, "[3]": {"test_system": "Alopecurus myosuroides (ALOMY)", "test": "Post-emergence herbicidal glasshouse test", "settings": "250 g/Ha, evaluated after 13 days", "description": "as §1"}, "Avena fatua (AVEFA) [4]": {"test_system": "Avena fatua (AVEFA)", "test": "Post-emergence herbicidal glasshouse test", "settings": "250 g/Ha, evaluated after 13 days", "description": "as §1"}, "Lolium perenne (LOLPE) [5]": {"test_system": "Lolium perenne (LOLPE)", "test": "Post-emergence herbicidal glasshouse test", "settings": "250 g/Ha, evaluated after 13 days", "description": "as §1"}, "[6]": {"test_system": "Echinochloa crus-galli (ECHCG)", "test": "Pre-emergence herbicidal glasshouse test", "settings": "250 g/Ha, evaluated after 13 days", "description": "as §1"}, "Setaria faberi (SETFA) [7]": {"test_system": "Setaria faberi (SETFA)", "test": "Pre-emergence herbicidal glasshouse test", "settings": "250 g/Ha, evaluated after 13 days", "description": "as §1"}, "[8]": {"test_system": "Alopecurus myosuroides (ALOMY)", "test": "Pre-emergence herbicidal glasshouse test", "settings": "250 g/Ha, evaluated after 13 days", "description": "as §1"}, "Avena fatua (AVEFA) [9]": {"test_system": "Avena fatua (AVEFA)", "test": "Pre-emergence herbicidal glasshouse test", "settings": "250 g/Ha, evaluated after 13 days", "description": "as §1"}, "Lolium perenne (LOLPE) [10]": {"test_system": "Lolium perenne (LOLPE)", "test": "Pre-emergence herbicidal glasshouse test", "settings": "250 g/Ha, evaluated after 13 days", "description": "as §1"}, "wheat crop plants": {"test_system": "wheat crop plants", "test": "Crop phytotoxicity comparison, post-emergence", "description": "as §1\n(§2) Using procedures outlines above, wheat and barley crop plants are treated, post-emergence with compounds A1, A3 or A8 of the present invention or comparator compound C1 (Compound A-38 from WO2014/096289) at the application rates indicated. The compounds were also applied in conjunction with the safener compound cloquintocet-mexyl (CQC) at 50 g/ha."}, "barley crop plants": {"test_system": "barley crop plants", "test": "Crop phytotoxicity comparison, post-emergence", "description": "as §1, §2"}, "[11]": {"settings": "post-emergence, 60 g/ha + safener cloquintocet-mexyl (CQC) at 50 g/ha"}, "[12]": {"settings": "post-emergence, summary of Table B3"}}}
{"smiles": "CC#Cc1cc(C)c(C2C(=O)CC3(CCN(C(=O)/C=N/OC)CC3)CC2=O)c(C)c1", "note": "[Compound A3, 9-(2,6-dimethyl-4-prop-1-ynyl-phenyl)-3-[(2E)-2-methoxyiminoacetyl]-3-azaspiro[5.5]undecane-8,10-dione]", "values": [{"measurement": "percentage damage caused to the plant, five point scale, ECHCG", "setting": "[1]", "value": "5 (5=80-100%)"}, {"measurement": "percentage damage caused to the plant, five point scale, SETFA", "setting": "Setaria faberi (SETFA) [2]", "value": "5 (5=80-100%)"}, {"measurement": "percentage damage caused to the plant, five point scale, ALOMY", "setting": "[3]", "value": "5 (5=80-100%)"}, {"measurement": "percentage damage caused to the plant, five point scale, AVEFA", "setting": "Avena fatua (AVEFA) [4]", "value": "5 (5=80-100%)"}, {"measurement": "percentage damage caused to the plant, five point scale, LOLPE", "setting": "Lolium perenne (LOLPE) [5]", "value": "5 (5=80-100%)"}, {"measurement": "percentage damage caused to the plant, five point scale, ECHCG", "setting": "[6]", "value": "5 (5=80-100%)"}, {"measurement": "percentage damage caused to the plant, five point scale, SETFA", "setting": "Setaria faberi (SETFA) [7]", "value": "5 (5=80-100%)"}, {"measurement": "percentage damage caused to the plant, five point scale, ALOMY", "setting": "[8]", "value": "4 (4=60-79%)"}, {"measurement": "percentage damage caused to the plant, five point scale, AVEFA", "setting": "Avena fatua (AVEFA) [9]", "value": "5 (5=80-100%)"}, {"measurement": "percentage damage caused to the plant, five point scale, LOLPE", "setting": "Lolium perenne (LOLPE) [10]", "value": "5 (5=80-100%)"}, {"measurement": "damage to wheat crop compared to prior art compound C1", "setting": "wheat crop plants; in vivo", "value": "significantly less damaging"}, {"measurement": "damage to barley crop compared to prior art compound C1", "setting": "barley crop plants; in vivo", "value": "significantly less damaging"}]}
{"smiles": "CC#Cc1cc(C)c(C2C(=O)CC3(CCN(C(=O)C(C)=NOC)CC3)CC2=O)c(C)c1", "note": "[Compound A1, 9-(2,6-dimethyl-4-prop-1-ynyl-phenyl)-3-(2-methoxyiminopropanoyl)-3-azaspiro[5.5]undecane-8,10-dione]", "values": [{"measurement": "percentage damage caused to the plant, five point scale, ECHCG", "setting": "[1]", "value": "5 (5=80-100%)"}, {"measurement": "percentage damage caused to the plant, five point scale, SETFA", "setting": "Setaria faberi (SETFA) [2]", "value": "5 (5=80-100%)"}, {"measurement": "percentage damage caused to the plant, five point scale, ALOMY", "setting": "[3]", "value": "5 (5=80-100%)"}, {"measurement": "percentage damage caused to the plant, five point scale, AVEFA", "setting": "Avena fatua (AVEFA) [4]", "value": "5 (5=80-100%)"}, {"measurement": "percentage damage caused to the plant, five point scale, LOLPE", "setting": "Lolium perenne (LOLPE) [5]", "value": "5 (5=80-100%)"}, {"measurement": "percentage damage caused to the plant, five point scale, ECHCG", "setting": "[6]", "value": "5 (5=80-100%)"}, {"measurement": "percentage damage caused to the plant, five point scale, SETFA", "setting": "Setaria faberi (SETFA) [7]", "value": "5 (5=80-100%)"}, {"measurement": "percentage damage caused to the plant, five point scale, ALOMY", "setting": "[8]", "value": "5 (5=80-100%)"}, {"measurement": "percentage damage caused to the plant, five point scale, AVEFA", "setting": "Avena fatua (AVEFA) [9]", "value": "5 (5=80-100%)"}, {"measurement": "percentage damage caused to the plant, five point scale, LOLPE", "setting": "Lolium perenne (LOLPE) [10]", "value": "5 (5=80-100%)"}, {"measurement": "% phytotoxicity observed, Wheat", "setting": "wheat crop plants; post-emergence, 30 g/ha", "value": 10, "unit": "%"}, {"measurement": "% phytotoxicity observed, Wheat", "setting": "wheat crop plants; post-emergence, 60 g/ha", "value": 20, "unit": "%"}, {"measurement": "% phytotoxicity observed, Wheat", "setting": "wheat crop plants; [11]", "value": 0, "unit": "%"}, {"measurement": "damage to wheat crop compared to prior art compound C1", "setting": "wheat crop plants; [12]", "value": "significantly less damaging"}, {"measurement": "% phytotoxicity observed, Barley", "setting": "barley crop plants; post-emergence, 30 g/ha", "value": 20, "unit": "%"}, {"measurement": "% phytotoxicity observed, Barley", "setting": "barley crop plants; post-emergence, 60 g/ha", "value": 40, "unit": "%"}, {"measurement": "damage to barley crop compared to prior art compound C1", "setting": "barley crop plants; [12]", "value": "significantly less damaging"}]}
{"smiles": "CC#Cc1cc(C)c(C2C(=O)CC3(CCN(C(=O)C(C)=NN(C)C)CC3)CC2=O)c(C)c1", "note": "[Compound A8, 3-[2-(dimethylhydrazono)propanoyl]-9-(2,6-dimethyl-4-prop-1-ynyl-phenyl)-3-azaspiro[5.5]undecane-8,10-dione]", "values": [{"measurement": "percentage damage caused to the plant, five point scale, ECHCG", "setting": "[1]", "value": "5 (5=80-100%)"}, {"measurement": "percentage damage caused to the plant, five point scale, SETFA", "setting": "Setaria faberi (SETFA) [2]", "value": "5 (5=80-100%)"}, {"measurement": "percentage damage caused to the plant, five point scale, ALOMY", "setting": "[3]", "value": "5 (5=80-100%)"}, {"measurement": "percentage damage caused to the plant, five point scale, AVEFA", "setting": "Avena fatua (AVEFA) [4]", "value": "5 (5=80-100%)"}, {"measurement": "percentage damage caused to the plant, five point scale, LOLPE", "setting": "Lolium perenne (LOLPE) [5]", "value": "5 (5=80-100%)"}, {"measurement": "percentage damage caused to the plant, five point scale, ECHCG", "setting": "[6]", "value": "5 (5=80-100%)"}, {"measurement": "percentage damage caused to the plant, five point scale, SETFA", "setting": "Setaria faberi (SETFA) [7]", "value": "5 (5=80-100%)"}, {"measurement": "percentage damage caused to the plant, five point scale, ALOMY", "setting": "[8]", "value": "5 (5=80-100%)"}, {"measurement": "percentage damage caused to the plant, five point scale, AVEFA", "setting": "Avena fatua (AVEFA) [9]", "value": "5 (5=80-100%)"}, {"measurement": "percentage damage caused to the plant, five point scale, LOLPE", "setting": "Lolium perenne (LOLPE) [10]", "value": "5 (5=80-100%)"}, {"measurement": "% phytotoxicity observed, Wheat", "setting": "wheat crop plants; post-emergence, 30 g/ha", "value": 0, "unit": "%"}, {"measurement": "% phytotoxicity observed, Wheat", "setting": "wheat crop plants; post-emergence, 60 g/ha", "value": 10, "unit": "%"}, {"measurement": "% phytotoxicity observed, Wheat", "setting": "wheat crop plants; [11]", "value": 10, "unit": "%"}, {"measurement": "damage to wheat crop compared to prior art compound C1", "setting": "wheat crop plants; [12]", "value": "significantly less damaging"}, {"measurement": "% phytotoxicity observed, Barley", "setting": "barley crop plants; post-emergence, 30 g/ha", "value": 0, "unit": "%"}, {"measurement": "% phytotoxicity observed, Barley", "setting": "barley crop plants; post-emergence, 60 g/ha", "value": 0, "unit": "%"}, {"measurement": "damage to barley crop compared to prior art compound C1", "setting": "barley crop plants; [12]", "value": "significantly less damaging"}]}
{"smiles": "CC#Cc1cc(C)c(C2C(=O)CC3(CCOCC3)CC2=O)c(C)c1", "note": "[Compound C1, reference compound]", "values": [{"measurement": "% phytotoxicity observed, Wheat", "setting": "wheat crop plants; post-emergence, 30 g/ha", "value": 40, "unit": "%"}, {"measurement": "% phytotoxicity observed, Wheat", "setting": "wheat crop plants; post-emergence, 60 g/ha", "value": 70, "unit": "%"}, {"measurement": "% phytotoxicity observed, Wheat", "setting": "wheat crop plants; [11]", "value": 60, "unit": "%"}, {"measurement": "% phytotoxicity observed, Barley", "setting": "barley crop plants; post-emergence, 30 g/ha", "value": 80, "unit": "%"}, {"measurement": "% phytotoxicity observed, Barley", "setting": "barley crop plants; post-emergence, 60 g/ha", "value": 90, "unit": "%"}]}
